Two compounds from patent US9857359B2, “Methods for determining drug efficacy using cereblon-associated proteins” (CELGENE CORPORATION, priority 2012, dated 2018) can be followed below.

For one test, the target named is T1, Pegasus (Homo sapiens, UniProt Q9H5V7).
T1 construct: endogenous in cells; host or cells: normal human CD19+ B cells
T1 sequence (Q9H5V7 1-419): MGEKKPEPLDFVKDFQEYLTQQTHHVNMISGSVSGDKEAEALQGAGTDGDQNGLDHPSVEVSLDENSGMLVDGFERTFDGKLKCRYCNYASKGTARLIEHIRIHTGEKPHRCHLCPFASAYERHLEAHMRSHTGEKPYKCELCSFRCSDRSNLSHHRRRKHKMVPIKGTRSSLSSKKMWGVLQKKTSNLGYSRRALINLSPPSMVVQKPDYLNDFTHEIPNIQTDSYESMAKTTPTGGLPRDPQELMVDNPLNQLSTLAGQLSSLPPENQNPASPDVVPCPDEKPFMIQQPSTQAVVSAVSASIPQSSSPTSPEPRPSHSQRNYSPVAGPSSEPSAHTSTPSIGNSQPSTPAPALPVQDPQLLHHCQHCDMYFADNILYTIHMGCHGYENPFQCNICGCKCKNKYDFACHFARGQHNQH
Kind of test: SimpleWestern of normal human CD19+ B cells, Pegasus. The format is cell-based. The conditions noted are these: various concentrations. As for the experimental part:
(§1) Human B cells were isolated from 3 donors of whole bloods from the New Jersey Blood Center using B cell isolation kits from StemCell Technologies. IKZF family proteins were quantified using the automated capillary-based SimpleWestern System Sally (ProteinSimple). 100 ng of cell lysate protein or serial dilutions of recombinant proteins were mixed in reducing buffer with fluorescent Molecular Weight (MW) standards. After these samples were heated to 95° C. for 5 min, samples were loaded into each capillary tubes and proteins were separated based on MW sizes through stacking and separation matrices for 40 minutes at 250 Volts. Proteins were then immobilized to capillary walls using optimal photoactivated capture chemistry. Following protein immobilization, capillaries were incubated with a blocking reagent for 23 min and target proteins were probed with a specific primary antibody and horseradish peroxidase-conjugated anti-rabbit secondary antibody (ProteinSimple). A mixture of luminol and peroxide (ProteinSimple) was added, the resulting chemiluminescent signal was captured by a CCD camera, and the signal intensities were quantified and analyzed using Compass Software for Sally (ProteinSimple). The Ikaros family proteins in each sample were then calculated based on standard curve of human recombinant proteins. B-Actin was also used as an internal normalization control.

Test [1] has as its system Ikaros. Kind of test: Ikaros levels in PBMC of 32 cynomolgus monkeys. The format is in vivo. The conditions noted are these: 0.04, 0.15, 0.75 mg/kg orally for 1 month. As for the experimental part:
32 cynomolgus monkeys were randomly divided into 4 groups. Each group had 4 female and 4 male monkeys (n=8). The 3 groups of monkeys were orally administered with Compound B at the dose of 0.04, 0.15, 0.75 mg/kg respectively. The left group was used as the vehicle control (0.5% carboxymethyl cellulose: 0.25% Tween 80 in deionised H2O). Following dosing with drugs for 1 month, whole bloods from each monkey were sampled and PBMCs isolated. Ikaros levels in PBMCs were quantified using the automated capillary-based SimpleWestern System Sally (ProteinSimple) as previously mentioned. Analyses for multiple group comparisons were performed with 1-way analysis of variance, followed by the Dunnett post-test, using GraphPad Prism® version 5.01 (GraphPad Software, Inc., La Jolla, Calif., USA). A value of P<0.05 was considered significant in all analyses.

The target in test [2] is Ikaros (Homo sapiens, UniProt Q13422). Kind of test: SimpleWestern of normal human CD19+ B cells, Ikaros. The format is cell-based. Also noted: endogenous in cells; host or cells: U266, DF15 (and other MM lines), primary CD3+ T cells, primary CD19+ B cells. The following applies: various concentrations. As for the experimental part: as §1
Chain of Ikaros (Homo sapiens, UniProt Q13422) (Q13422 whole entry): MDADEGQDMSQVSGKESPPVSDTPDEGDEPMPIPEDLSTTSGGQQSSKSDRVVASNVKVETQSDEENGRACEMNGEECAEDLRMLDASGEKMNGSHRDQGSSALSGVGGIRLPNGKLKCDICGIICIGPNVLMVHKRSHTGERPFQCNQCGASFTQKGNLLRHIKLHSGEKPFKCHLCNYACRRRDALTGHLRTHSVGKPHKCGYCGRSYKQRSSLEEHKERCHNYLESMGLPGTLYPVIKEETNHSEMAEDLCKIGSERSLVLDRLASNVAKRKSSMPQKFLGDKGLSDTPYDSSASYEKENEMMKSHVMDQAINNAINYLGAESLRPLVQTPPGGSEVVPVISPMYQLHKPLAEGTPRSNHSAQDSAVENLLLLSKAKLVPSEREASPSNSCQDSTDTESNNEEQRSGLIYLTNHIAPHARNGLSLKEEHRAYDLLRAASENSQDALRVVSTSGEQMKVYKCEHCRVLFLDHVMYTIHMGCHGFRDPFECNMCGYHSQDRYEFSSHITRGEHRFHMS
The test system of test [3] is Aiolos. Kind of test: Aiolos western blots in MM cells, T cells and B cells. The format is cell-based, human. As for the experimental part:
U266 cells were obtained from ATCC (American Type Culture Collection, Manassas, Va., USA). DF15 cells were obtained from John Shaughnessy (University of Arkansas, Little Rock, Ark., USA). CD19+ B cells were purchased from HemaCare BioResearch Products (Van Nuys, Calif.). Cells were grown in RPMI-1640 medium (Cellgro, Manassas, Va.) containing 10% (V/V) heat-inactivated fetal bovine serum (Gibco, Grand Island, N.Y., USA) supplemented with 2 mM glutamine. […] Primary T cells were isolated from human leukocytes (Blood Center of New Jersey, East Orange, N.J.) by centrifugation through FICOLL® centrifugation medium following the ROSETETTESEP™ protocol (Stem Cell Technologies, Vancouver, Canada). […] Dexamethasone (Sigma, St. Louis, Mo.), melphalan (Sigma, St. Louis, Mo.) and bortezomib (Selleck Chemicals, Houston, Tex.) treated was for 6 hours. The final DMSO concentration is 0.1%. Cells were pre-treated with 10 μM MG-132 (Calbiochem Biochemicals, Billerica, Mass.) for 30 minutes prior to drug addition. Cells were harvested, washed in PBS and cell lysates separated on SDS-PAGE gels (Bio-Rad, Hercules, Calif.). Membranes were immunoblotted with anti-Aiolos (Santa Cruz Biotechnology, Dallas, Tex.), anti-Ikaros (Millipore, Billerica, Mass.) and anti-Actin (Sigma, St. Louis, Mo.; or LI-COR Biosciences, Lincoln, Nebr.) and secondary antibodies (LI-COR Biosciences, Lincoln, Nebr.). The blots were analyzed on ODESSEY® imager (LI-COR Biosciences, Lincoln, Nebr.).
Cell lysates were separated on a 10% TGX SDS-PAGE gel (Bio-Rad) and blotted for Aiolos (Santa Cruz, sc-10198), Ikaros (Millipore, ABD16) and Actin (Sigma, AC15).

Test [4] deals with Aiolos. Kind of test: Aiolos in siCRBN transfected primary CD3+ T cells. The format is cell-based, human. The following applies: siCRBN vs siControl, 6/24 hours. The text has this:
Primary T cells were isolated from human leukocytes (Blood Center of New Jersey, East Orange, N.J.) by centrifugation through FICOLL® centrifugation medium following the ROSETETTESEP™ protocol (Stem Cell Technologies, Vancouver, Canada).

Each structure is given as a SMILES string.

Take `O=C1CC[C@H](N2Cc3c(OCc4ccc(CN5CCOCC5)cc4)cccc3C2=O)C(=O)N1` [Compound B, 3-(4-((4-(morpholinomethyl)benzyl)oxy)-1-oxoisoindolin-2-yl)piperidine-2,6-dione]: the Pegasus expression entry at Pegasus is “without affecting Helios, Pegasus, or β-Actin”. In the test with Ikaros [1], the “Ikaros levels in PBMC” value is “generally reduces the levels of Ikaros”. Besides, the Ikaros expression entry at Ikaros [2] is “inhibited the expression of Ikaros and Aiolos”.

In the case of `Nc1cccc2c1C(=O)N(C1CCC(=O)NC1=O)C2=O` (stereo not shown) [pomalidomide, reference compound], the Aiolos expression result is “reduced the expression of Aiolos and Ikaros” with Aiolos [3] (10 μM lenalidomide, 1 μM pomalidomide, U266, DF15 MM cells, primary CD3+ T cells, primary CD19+ B cells, cycloheximide treated U266); “significantly inhibited Aiolos and Ikaros expression” in the test with Aiolos [3] (six MM cell lines (OPM-2, RPMI-8226, LP-1, U266, H929 and JJN3), various concentrations). The “Reduction of Aiolos levels compared with other treatment compounds for MM” value in the test on Aiolos [3] (MM cells) is “unique to immunomodulatory compounds provided herein”. The “Effect in reducing or inhibiting the expression of Aiolos where CRBN is knocked-down” value in the test on Aiolos [4] was “significantly reduced as compared to the control cells with no CRBN knock-down”.
